# Experiments:
# [1] = system: alkaline phosphatase (ALP); assay: ALP expression staining in C2C12 cells; assay type: cell-based, mouse; details: for ALP expression by staining: C2C12, 2 days, 10 μM
# Description: C2C12 cells were treated for 2 days with 10 μM DIPQUO or structural analogs, 1 ng/ml rhBMP4, or with inhibitors as noted in figure legends, and then fixed briefly in 70% acetone/10% formaldehyde/20% citrate. Staining was achieved using the leukocyte alkaline phosphatase kit (Sigma 86R-1KT) according to the manufacturer's instructions. Expression of ALP was confirmed and quantified by flow cytometric analysis, using an Accuri C6 flow cytometer. Briefly, control- or DIPQUO-treated C2C12 cells were detached and harvested on day 2 using PBS-based enzyme-free cell detachment solution (ThermoFisher). 2×10^5 cells were incubated on ice for 30 minutes with 10 μl APC-conjugated ALPL antibody (R&D Systems), and washed in ice-cold PBS before analysis. Live cells were gated and analyzed in CFlow Plus software and then data was converted to FlowJo to achieve publication-level resolution. For siRNA experiments, gene-specific oligonucleotides were obtained for mouse p38-alpha (Cell Signaling) and p38-beta (Santa Cruz). Signal Silence scramble siRNA control oligonucleotide was purchased from Cell Signaling. C2C12 cells at 70% confluency were transfected in 12-well plates using Lipofectamine RNAiMax reagent (Invitrogen) according to manufacturer's instructions. Transfected cells were treated 24 hours later with DMSO or 10 μM DIPQUO, and siRNA transfection was repeated after 48 hours without changing culture media. After an additional 3 days, cells were either fixed and stained for ALP expression or analyzed for ALP activity using the AttoPhos Substrate kit. Hemagglutinin and FLAG epitope-tagged MKK3 (pMT2-HA-MKK3) and MKK6 (pcDNA3-FLAG-MKK6) constructs were obtained from Addgene and transfected into C2C12 cells using Lipofectamine LTX with Plus Reagent (ThermoFisher) according to manufacturer's instructions and cell extracts analyzed for protein expression and activity as described below.
# [2] = system: alkaline phosphatase (ALP); details: for RFU Score (10 μM): 154-analog library, C2C12, duplicate
# [3] = system: alkaline phosphatase (ALP); assay: cells; details: Mus musculus; for activation at 10 µM: C2C12, 96 h
SMILES,RFU Score (10 μM) [2],activation at 10 µM [3] [%],further results
COC(=O)c1cc2cc(Cl)ccc2[nH]c1=O [BT344],–,–,"ALP expression by staining [1]: inert; Fluo. Z Score ([2]; SAR of library and proprietary analogs, AttoPhos assay, C2C12): 0.61 ± 0.47; EC50 ([3]; C2C12): 920 nM"
O=C(O)c1cc2cc(Cl)ccc2[nH]c1=O [BT345],–,–,ALP expression by staining [1]: inert
"c1ccc2c(-c3cnn4cc(-c5ccc(N6CCNCC6)cc5)cnc34)ccnc2c1 [LDN193189, reference compound]",–,–,"effect of inhibitor on BMP-driven ALP expression (staining) ([1]; C2C12, co-treatment with BMP): attenuated BMP activation of ALP expression"
O=C(c1[nH]cnc1-c1ccccc1)N1CCC(Oc2ccccc2)C1 (stereo not drawn) [RU-0424523],419,4.84,–
O=C(c1[nH]cnc1-c1ccccc1)N(Cc1cocn1)Cc1cocn1 [RU-0424524],549,9.42,–
Cc1cc(C)c2[nH]c(=O)c(CN3CCN(Cc4noc(C)n4)CC3)cc2c1 [RU-0424525],563,9.94,–
CCn1nc(C(=O)O)c2c1CCN(C(=O)c1[nH]cnc1-c1ccccc1)C2 [RU-0424526],545,9.28,–
CN(C)C1=NC2(CCN(C(=O)c3[nH]cnc3-c3ccccc3)CC2)C(=O)N1 [RU-0424527],575,10.5,–
CO[C@@]12CC[C@H](O)C[C@@H]1N(Cc1cc3cc(C)cc(C)c3[nH]c1=O)CC2 [RU-0424528],538,9.03,–
CN(CC1COCCO1)C(=O)c1ccc(-c2[nH]cnc2-c2ccccc2)cc1 (stereo not drawn) [RU-0424529],504,7.85,–
Cc1cc(C)c2[nH]c(=O)c(CN3CCCC[C@H](N(C)C)C3)cc2c1 [RU-0424530],524,8.55,–
O=C(c1[nH]cnc1-c1ccccc1)N1CCOC(c2ccc(F)cc2)C1 (stereo not drawn) [RU-0424531],478,6.93,–
Cc1cc(C)c2[nH]c(=O)c(CN(C)Cc3ncccc3C)cc2c1 [RU-0424532],627,12.2,–
O=C(NCc1nnc2ccccn12)c1[nH]cnc1-c1ccccc1 [RU-0424533],607,11.5,–
CC(C)CN(C)[C@H]1CN(C(=O)c2[nH]cnc2-c2ccccc2)C[C@@H]1O [RU-0424534],638,12.6,–
Cc1cc(C)c2[nH]c(=O)c(CN3C[C@H]4C(=O)NC[C@@]4(C(=O)O)C3)cc2c1 [RU-0424535],518,8.32,–
Cc1cc(C)c2[nH]c(=O)c(CN3CCCC(c4ncc[nH]4)C3)cc2c1 (stereo not drawn) [RU-0424536],516,8.27,–
CNC(=O)[C@@H]1C[C@@H](N)CN1Cc1cc2cc(C)cc(C)c2[nH]c1=O [RU-0424537],513,8.16,–
O=S(=O)(Nc1ncc(-c2[nH]cnc2-c2ccccc2)cn1)c1ccccc1 [RU-0424538],533,8.87,–
Cc1cc(C)c2[nH]c(=O)c(-c3nccn3CCCN(C)C)cc2c1 [RU-0424539],565,10,–

SMILES,RFU Score (10 μM) [2],activation at 10 µM [3] [%],further results
c1ccc(-c2nc[nH]c2-c2cnc(N3CCOCC3)s2)cc1 [RU-0424540],603,11.4,–
Cc1cc(C)c2[nH]c(=O)c(C3CC(=O)Nc4[nH]nc(C(=O)O)c43)cc2c1 (stereo not drawn) [RU-0424541],646,12.9,–
CO[C@@]12CC[C@@H](O)C[C@@H]1N(Cc1cc3cc(C)cc(C)c3[nH]c1=O)CC2 [RU-0424542],641,12.7,–
Cc1cc(C)c2[nH]c(=O)c(-c3nccn3C(C)Cn3nc(C)cc3C)cc2c1 (stereo not drawn) [RU-0424543],363,2.86,–
c1ccc(-c2nc(-c3[nH]cnc3-c3ccccc3)cs2)cc1 [RU-0424544],450,5.93,–
COc1cccc(-c2[nH]cnc2-c2ccccc2)c1OCCCN(C)C [RU-0424545],433,5.33,–
Cc1cc(C)c2[nH]c(=O)c(CN3CCCn4cncc4C3)cc2c1 [RU-0424546],460,6.3,–
Cc1c(-c2[nH]cnc2-c2ccccc2)c2ccccc2n1CC(N)=O [RU-0424547],518,8.34,–
O=C(NC1CC(=O)N(Cc2ccc(F)cc2)C1)c1[nH]cnc1-c1ccccc1 (stereo not drawn) [RU-0424548],467,6.54,–
Cc1cc(C)c2[nH]c(=O)c(-c3ncc[nH]3)cc2c1 [RU-0424549],445,5.75,–
Cc1cc(C)c2[nH]c(=O)c(CN3CCN(C)[C@@H]4CS(=O)(=O)C[C@@H]43)cc2c1 [RU-0424550],304,0.78,–
O=C(c1[nH]cnc1-c1ccccc1)N1CCCC(c2ccn[nH]2)C1 (stereo not drawn) [RU-0424551],452,6,–
O=C(NCCc1nnc2n1CCNCC2)c1[nH]cnc1-c1ccccc1 [RU-0424552],485,7.18,–
Cc1cc(C)c2[nH]c(=O)c(CN3CCC(NS(C)(=O)=O)CC3)cc2c1 [RU-0424553],454,6.08,–
CCN(C)Cc1cc2n(n1)CCN(C(=O)c1[nH]cnc1-c1ccccc1)C2 [RU-0424554],409,4.5,–
O=C(O)CCc1cc2n(n1)CCN(C(=O)c1[nH]cnc1-c1ccccc1)C2 [RU-0424555],443,5.68,–
NS(=O)(=O)CC1CCN(C(=O)c2[nH]cnc2-c2ccccc2)C1 (stereo not drawn) [RU-0424556],435,5.4,–
COc1cc2c(cc1O)NC(=O)CC2c1cc2cc(C)cc(C)c2[nH]c1=O (stereo not drawn) [RU-0424557],430,5.24,–
COC(=O)[C@H]1C[C@@H](O)CCN1Cc1cc2cc(C)cc(C)c2[nH]c1=O [RU-0424558],399,4.15,–
"C[C@@H]1CN(Cc2ccc(F)cc2)[C@@H](C)CN1C(=O)c1cc2c(C(=O)C(=O)N(C)C)cn(C)c2cc1Cl [SCI0469, reference compound]",–,–,"effect of inhibitor on DIPQUO-driven ALP expression (staining) ([1]; C2C12, co-treatment with DIPQUO): attenuated ALP expression in DIPQUO-treated cells"

# — patent US11478466B2, “Small molecule promoting osteoblast differentiation” (Cornell University, priority 2019, dated 2022)
